Measured values: patent US20250304547A1, “Sulfur-Containing Lipids” (NanoVation Therapeutics Inc., priority 2022, published 2025)

How the values were obtained:
FVII gene = conditions: mice, siRNA formulations of the amino lipid; cited from earlier work
[1] = Particle size analysis of LNPs by dynamic light scattering; assay type: physicochemical; conditions: firefly luciferase mRNA LNP, ionizable lipid/DSPC/chol/PEG-DMG 50/10/38.5/1.5 mol %; for polydispersity index (PDI): N/P 6; for particle size (number-weighted average diameter): N/P 6, in PBS
Protocol: (§1) Lipids used in the formulation, nor-MC3, 4, DSPC, cholesterol, and PEG-DMG, were dissolved in ethanol at the appropriate ratios to a final concentration of 10 mM total lipid. Nucleic acid (mRNA) was dissolved in an appropriate buffer such as 25 mM sodium acetate pH 4 or sodium citrate pH 4 to a concentration necessary to achieve the appropriate amine-to-phosphate ratios. The aqueous and organic solutions were mixed using a rapid-mixing device as described in Kulkami et al., 2018, ACS Nano, 12:4787 and Kulkami et al., 2017, Nanoscale, 36:133347 (each incorporated herein by reference) at a flow rate ratio of 3:1 (v/v; respectively) and a total flow rate of 20 mL/min. The resultant mixture was dialyzed directly against 1000-fold volume of PBS pH 7.4. All formulations were concentrated using an Amicon™ centrifugal filter unit and analysed using the methods described below.
Particle size analysis of LNPs in PBS was carried out using backscatter measurements of dynamic light scattering with a Malvern Zetasizer™ (Worcestershire, UK). The reported particle sizes correspond to the number-weighted average diameters (nm). Total lipid concentrations were determined by extrapolation from the cholesterol content, which was measured using the Cholesterol E-Total Cholesterol Assay (Wako Diagnostics, Richmond, VA) as per the manufacturer's recommendations. Encapsulation efficiency of the formulations was determined using the Quant-iT RiboGreen™ Assay kit (Invitrogen, Waltham, MA). Briefly, the total mRNA content in solution was measured by lysing lipid nanoparticles in a solution of Tris-EDTA (TE) containing 2% Triton Tx-100, and free […] in solution (external to LNP) was measured based on the RiboGreen™ fluorescence in a TE solution without Triton. Total mRNA content in the formulation was determined using a modified Bligh-Dyer extraction procedure. Briefly, LNP formulations containing mRNA were dissolved in a mixture of chloroform, methanol, and PBS that results in a single phase and the absorbance at 260 nm measured using a spectrophotometer.

[2] = Encapsulation efficiency, Quant-iT RiboGreen assay; assay type: physicochemical; conditions: firefly luciferase mRNA LNP, ionizable lipid/DSPC/chol/PEG-DMG 50/10/38.5/1.5 mol %, N/P 6
Protocol: as §1
Particle size analysis of LNPs in PBS was carried out using backscatter measurements of dynamic light scattering with a Malvern Zetasizer™ (Worcestershire, UK). […] Total lipid concentrations were determined by extrapolation from the cholesterol content, which was measured using the Cholesterol E-Total Cholesterol Assay (Wako Diagnostics, Richmond, VA) as per the manufacturer's recommendations. Encapsulation efficiency of the formulations was determined using the Quant-iT RiboGreen™ Assay kit (Invitrogen, Waltham, MA). […]

liver = experiment: In vivo transfection of firefly luciferase mRNA-LNP, luciferase assay of liver; conditions: CD-1 mice, intravenous, 4 hours post-administration, mRNA LNP 50/10/38.5/1.5 mol %, N/P 6
Protocol: as §1
(§2) LNP-mRNA encoding firefly luciferase were injected intravenously (tail-vein) into 6-8 week old CD-1 mice. Four hours following injection, the animals were euthanized and the liver and spleen were isolated. Tissue was homogenized in Glo Lysis™ buffer and a luciferase assay performed using the Steady Glo Luciferase™ assay kit (as per manufacturers recommendations).

spleen = experiment: In vivo transfection of firefly luciferase mRNA-LNP, luciferase assay of spleen; conditions: CD-1 mice, intravenous, 4 hours post-administration, mRNA LNP 50/10/38.5/1.5 mol %, N/P 6
Protocol: as §1, §2

## CCCCC/C=C\C/C=C\CCCCCCCCC1(CCCCCCCC/C=C\C/C=C\CCCCC)OCC(CCN(C)C)O1 (stereo not drawn) [KC2]
FVII gene
  ED50 for FVII gene silencing: 0.1 mg/kg

## CCCCCSCSCCCCCCCCC1(CCCCCCCCSCSCCCCC)OCC(CCN(C)C)O1 (stereo not drawn) [Lipid 4, 2-(2,2-bis(8-(((pentylthio)methyl)thio)octyl)-1,3-dioxolan-4-yl)-N,N-dimethyl-ethan-1-amine]
[1]
  polydispersity index (PDI): about 0.090
  particle size (number-weighted average diameter): about 50.0 nm
[2]
  entrapment / encapsulation efficiency: ~90%
liver
  luminescence intensity/mg of liver, relative to the nor-MC3 formulation: trend was reversed in the liver
spleen
  luminescence intensity/mg of spleen, relative to the nor-MC3 formulation: higher luminescence intensity in the spleen

## nor-MC3 [reference compound]
[1]
  polydispersity index (PDI): about 0.075
  particle size (number-weighted average diameter): about 39.9 nm
[2]
  entrapment / encapsulation efficiency: 94%
